Molecules are shown by their SMILES.

Results on five compounds are retold here after paper PMC11009625, “Antibiotic class with potent in vivo activity targeting lipopolysaccharide synthesis in Gram-negative bacteria” (Proceedings of the National Academy of Sciences of the …, 2024).

The assay deals with T1, E. coli LpxH (Escherichia coli, UniProt P43341).
T1 construct: His6 (C); made in house; host or cells: E. coli BL21-AI (pET-26b(+), synthetic gene from GenScript)
The assay can be described thus: MBP-AaLpxE-coupled LpxH activity assay (malachite green). It is filed as biochemical. The note with it: read-out: E. coli LpxH enzyme inhibition IC50. As to the method:
E. coli-optimized EcLpxH and KpLpxH sequences, cloned into a pET-26b(+) vector (Novagene) using NdeI/XhoI restriction sites, were ordered from GenScript Biotech (the Netherlands), giving constructs with a His6-tag at the C-terminal end, and bearing kanamycin resistance. Competent E. coli BL21-AI cells (Invitrogen) were transformed and grown at 37 °C in Luria broth containing 50 μg/mL kanamycin to an OD600 of 0.5 to 1.0, then induced for 2 to 3 h by adding IPTG and L-arabinose to final concentrations of 0.5 mM and of 2 mg/mL, respectively. Harvested cells were lysed in a One-Shot cell disrupter (Constant Systems Ltd., UK) in 20 mM Tris-HCl pH 8.0, 300 mM NaCl, 20 mM imidazole, 4 M urea, 5% (v/v) glycerol, 0.01 mg/mL RNase A and 0.02 mg/mL DNase, plus cOmplete, EDTA-free protease inhibitor cocktail (Roche). Proteins were purified using Ni-nitrilotriacetic acid agarose (Qiagen), HiTrap Heparin HP affinity chromatography (Cytiva), and HiLoad 16/60 Superdex 200 chromatography (Amersham Biosciences). Final samples were concentrated to 15 mg/mL protein and stored in aliquots in 20 mM Tris-HCl (pH 8.0) containing 300 mM NaCl and 2 mM DTT at −80 °C. Assays were performed essentially as described by ref. [26]. Additional assay details are available in SI Appendix.
Cloning, expression and purification of LpxHs. E. coli-optimized EcLpxH and KpLpxH sequences, cloned into a pET-26b(+) vector (Novagene) using NdeI/XhoI restriction sites, were ordered from GenScript Biotech (the Netherlands), giving constructs with a His6-tag at the C-terminal end, and bearing kanamycin resistance. The correctness of the sequences was verified by DNA sequencing. Competent E. coli BL21-AI cells (Invitrogen) were transformed with the resulting plasmids for protein production.
Cultures of 8 L of Luria broth containing 50 μg/mL kanamycin were grown at 37 °C to an OD600 of 0.5-1.0, then induced by adding IPTG to a final concentration of 0.5 mM and L-arabinose to a final concentration of 2 mg/ml. After 2-3 h of incubation at 37 °C, cells were harvested by centrifugation, and the pellet was resuspended in lysis buffer (20 mM Tris-HCl pH 8.0, 300 mM NaCl, 20 mM imidazole, 4 M urea, 5% (v/v) glycerol, 0.01 mg/mL RNase A and 0.02 mg/mL DNase, plus one tablet of cOmplete, EDTA-free cocktail protease inhibitor cocktail (Roche)).
Cells were lysed using a One-Shot cell disrupter (Constant Systems Ltd., UK). The lysate was spun down and the soluble fraction containing LpxH was incubated at 4 °C overnight with 1.5 mL pre-equilibrated Ni-nitrilotriacetic acid agarose (Qiagen) slurry using the same buffer. The column was then washed in steps of 30 column volumes with lysis buffer (without RNase A, DNase and protease inhibitor) containing 3, 2, 1, 0.5 and 0 M of urea. The protein was then eluted with eight column volumes of 500 mM imidazole in the same buffer. Fractions containing the desired protein as judged by SDS gels were pooled and purified on a HiTrap Heparin HP affinity column (Cytiva) (loading buffer 20 mM Tris-HCl, pH 8.0 and 5% glycerol, 2 mM DTT; elution buffer 20 mM Tris-HCl, pH 8.0 and 5% glycerol, 1 M NaCl, 2 mM DTT) and further applied to a HiLoad 16/60 Superdex 200 preparative grade column (Amersham Biosciences) pre-equilibrated with 20 mM Tris-HCl, pH 8.0, 300 mM NaCl, 5% glycerol, 2 mM
DTT. […]
for EcLpxH2 and KpLpxH, respectively, calculated using the ProtParam tool(1) were analyzed by SDS PAGE and stored in 20 mM Tris-HCl (pH 8.0) containing 300 mM NaCl and 2 mM DTT at -80 […]

T1 sequence (P43341 whole entry): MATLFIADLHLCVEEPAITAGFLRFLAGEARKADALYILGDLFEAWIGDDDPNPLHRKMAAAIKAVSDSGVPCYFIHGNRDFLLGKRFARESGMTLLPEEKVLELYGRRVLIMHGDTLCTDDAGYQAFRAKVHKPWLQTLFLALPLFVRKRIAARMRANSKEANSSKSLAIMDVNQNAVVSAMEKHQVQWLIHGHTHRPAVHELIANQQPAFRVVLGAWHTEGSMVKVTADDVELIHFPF

As for `CC(=O)N1CCc2cc(S(=O)(=O)N3CCN(c4cccc(C(F)(F)F)c4)CC3)ccc21` [AZ1, reference compound], the IC50 stood at 520 nM.
In the case of `CN(c1ccc(CNCCN)cc1C(=O)Nc1ccc(S(=O)(=O)N2CCN(c3cc(Cl)cc(Cl)c3)CC2)cc1)S(C)(=O)=O` [EBL-3025] it was 3.4 nM; in that of `Cc1cc(C#N)nc(N2CCN(S(=O)(=O)c3ccc(NC(=O)c4ccccc4N(C)S(C)(=O)=O)cc3)CC2)n1` [EBL-3339], 1.5 nM.
On to `CN(c1ccccc1C(=O)Nc1ccc(S(=O)(=O)N2CCCCC2)cc1)S(C)(=O)=O` [JEDI-852], for which the IC50 stood at 1300 nM.
As to `CN(c1ccccc1C(=O)Nc1ccc(S(=O)(=O)N2CCN(c3cccc(C(F)(F)F)c3)CC2)cc1)S(C)(=O)=O` [JEDI-1444], the IC50 was 2.6 nM.

A word on the IC50: it is the point on the concentration scale where inhibition reaches its midpoint.
